Values of other authors as cited in patent US7825087B2 (Elan Pharma International Limited, priority 2005, dated 2010).

Key:
[1] = distribution in blood, concentration dependent
bone marrow = conditions: animal models or man

## [R—[R*,R*-(E)]]-cyclic (L-alanyl-D-alanyl-N-methyl-L-leucyl-N-methyl-L-leucyl-N-methyl-L-valyl-3-hydroxy-N,4-dimethyl-L-2-amino-6-octenoyl-L-(alpha)-amino-butyryl-N-methylglycyl-N-methyl-L-leucyl-L-valyl-N-methyl-L-leucyl) [cyclosporine]
[1]
  fraction in erythrocytes: 41%-58%
  fraction in granulocytes: 5%-12%
  fraction in lymphocytes: 4%-9%
Bone marrow
  bone marrow suppression: does not cause bone marrow suppression
